Assay results published in patent US8710043B2, “TRPM8 antagonists and their use in treatments” (Amgen Inc., priority 2011, dated 2014).

Target: T1, human TRPM8 (Homo sapiens, UniProt Q7Z2W7)
T1 construct: expressed in transfected cells; host or cells: Chinese hamster ovary (CHO) cells, T-REx tetracycline-inducible system, co-transfected with aequorin
Assay: Luminescence readout assay for measuring intracellular calcium, icilin activation
Type: cell-based
Settings: CHO cells expressing human TRPM8, aequorin luminescence, 1 μM icilin activation; read-out: hTRPM8 IC50
Summary of the method: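 The read-out was luminescence reporting intracellular calcium, recorded by a CCD-based luminometer. Compounds were preincubated for 2.5 min before agonist challenge with 1 μM icilin. Human TRPM8 was expressed in a stable T-REx CHO line, induced with 0.5 μg/mL tetracycline the day before.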

T1 sequence (Q7Z2W7 whole entry): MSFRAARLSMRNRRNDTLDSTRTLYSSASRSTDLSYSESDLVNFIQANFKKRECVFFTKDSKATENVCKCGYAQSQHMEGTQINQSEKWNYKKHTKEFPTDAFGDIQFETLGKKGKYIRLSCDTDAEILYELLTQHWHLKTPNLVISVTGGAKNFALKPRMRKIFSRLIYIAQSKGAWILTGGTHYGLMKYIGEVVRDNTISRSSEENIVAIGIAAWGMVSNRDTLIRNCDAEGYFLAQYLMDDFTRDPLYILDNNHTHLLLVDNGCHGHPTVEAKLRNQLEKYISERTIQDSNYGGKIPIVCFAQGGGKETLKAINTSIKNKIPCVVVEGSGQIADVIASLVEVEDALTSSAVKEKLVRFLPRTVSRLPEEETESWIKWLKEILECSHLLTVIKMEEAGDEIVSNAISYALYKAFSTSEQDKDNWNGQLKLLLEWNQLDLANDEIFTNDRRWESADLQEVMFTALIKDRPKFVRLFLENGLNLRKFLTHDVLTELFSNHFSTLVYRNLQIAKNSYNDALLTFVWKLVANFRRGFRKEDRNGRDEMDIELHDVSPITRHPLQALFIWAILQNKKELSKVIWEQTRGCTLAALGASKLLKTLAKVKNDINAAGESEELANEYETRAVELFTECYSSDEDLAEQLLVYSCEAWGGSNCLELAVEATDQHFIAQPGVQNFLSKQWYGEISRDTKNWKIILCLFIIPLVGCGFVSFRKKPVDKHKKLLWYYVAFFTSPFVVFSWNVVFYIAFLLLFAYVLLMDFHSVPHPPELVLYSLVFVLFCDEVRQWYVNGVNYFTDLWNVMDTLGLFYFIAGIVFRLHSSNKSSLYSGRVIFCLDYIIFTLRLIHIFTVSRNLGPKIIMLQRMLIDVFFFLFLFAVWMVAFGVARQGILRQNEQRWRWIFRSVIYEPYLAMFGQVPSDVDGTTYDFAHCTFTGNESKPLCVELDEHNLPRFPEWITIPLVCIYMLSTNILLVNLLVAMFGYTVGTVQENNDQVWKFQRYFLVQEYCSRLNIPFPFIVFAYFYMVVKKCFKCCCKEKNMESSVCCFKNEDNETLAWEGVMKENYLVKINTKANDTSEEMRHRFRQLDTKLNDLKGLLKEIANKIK

SMILES | IC50 [nM]
COc1ccc([C@H](NC(=O)c2ccc(=O)n(C)c2)c2ncccc2F)cc1 [Example 343, (S)-N-((3-fluoropyridin-2-yl)(4-methoxyphenyl)methyl)-1-methyl-6-oxo-1,6-dihydropyridine-3-carboxamide] | 1480
O=C(N[C@@H](c1ccc(C(F)(F)F)cc1)c1ncccc1C(F)(F)F)c1ccc2c(c1)C(=O)CC2 [Example 245, (S)-3-oxo-N-((4-(trifluoromethyl)phenyl)(3-(trifluoromethyl)pyridin-2-yl)methyl)-2,3-dihydro-1H-indene-5-carboxamide] | 77.4
CCNc1ccc(C(=O)N[C@@H](c2ccc(C(F)(F)F)cc2)c2ncccc2C(F)(F)F)cn1 [Example 263, (S)-6-(Ethylamino)-N-((4-(trifluoromethyl)phenyl)(3-(trifluoromethyl)pyridin-2-yl)methyl)nicotinamide] | 133
COC(=O)c1ccc(C(=O)N[C@@H](c2ccc(OC(F)(F)F)c(F)c2)c2ccccn2)nc1 [Example 406, (S)-methyl 6-(((3-fluoro-4-(trifluoromethoxy)phenyl)(pyridin-2-yl)methyl)carbamoyl)nicotinate] | 241
N#Cc1cccnc1[C@@H](NC(=O)c1ccc2cccnc2c1)c1ccc(C(F)(F)F)cc1 [Example 278, (S)—N-((3-Cyanopyridin-2-yl)(4-(trifluoromethyl)phenyl)-methyl)quinoline-7-carboxamide] | 317
O=C(N[C@@H](c1ccc(OC(F)(F)F)c(F)c1)c1ncccc1F)c1c[nH]c(=O)cn1 [Example 353, (S)-N-((3-fluoro-4-(trifluoromethoxy)phenyl)(3-fluoropyridin-2-yl)methyl)-5-oxo-4,5-dihydropyrazine-2-carboxamide] | 27.7
O=C(N[C@@H](c1ccc(C(F)(F)F)cc1)c1ncccc1C(F)(F)F)c1ccc2c(c1)C(=O)NC2=O [Example 94, (S)-1,3-dioxo-N-((4-(trifluoromethyl)phenyl)(3-(trifluoromethyl)pyridin-2-yl)methyl)isoindoline-5-carboxamide] | 41.4
O=C(N[C@@H](c1ccc(C(F)(F)F)cc1)c1cnccc1C(F)(F)F)c1ccc2ncccc2c1 [Example 260, (S)-N-((4-(trifluoromethyl)phenyl)(4-(trifluoromethyl)pyridin-3-yl)methyl)quinoline-6-carboxamide bis (2,2,2-trifluoroacetate)] | 311
CCc1ccc([C@H](NC(=O)c2ccc3cccnc3c2)c2ncccc2C(F)(F)F)cc1 [Example 115, (S)-N-((4-ethylphenyl)(3-(trifluoromethyl)pyridin-2-yl)methyl)quinoline-7-carboxamide] | 56.2
O=C(Cn1ccnc1)N[C@@H](c1ccc(C(F)(F)F)cc1)c1ncccc1C(F)(F)F [Example 161, (S)-2-(1H-imidazol-1-yl)-N-((4-(trifluoromethyl)phenyl)(3-(trifluoromethyl)pyridin-2-yl)methyl)acetamide 2,2,2-trifluoroacetate] | 3370
O=C(N[C@@H](c1cnc2c(Cl)cccc2c1)c1ncccc1C(F)(F)F)c1ccc2cccnc2c1 [Example 7, (S)-N-((8-chloroquinolin-3-yl)(3-(trifluoromethyl)pyridin-2-yl)methyl)quinoline-7-carboxamide] | 75.8
O=C1CNc2cc(C(=O)N[C@@H](c3ccc(C(F)(F)F)cc3)c3ncccc3F)ccc2O1 [Example 75, (S)-N-((3-fluoropyridin-2-yl)(4-(trifluoromethyl)phenyl)methyl)-2-oxo-3,4-dihydro-2H-benzo[b][1,4]oxazine-6-carboxamide] | 39.1
COc1ncccc1C(=O)NC(c1ccc(C(F)(F)F)cc1)c1ncccc1F (stereo not shown) [Example 36, N-((3-fluoropyridin-2-yl)(4-(trifluoromethyl)phenyl)methyl)-2-methoxynicotinamide] | 73
O=C(N[C@@H](c1ccc(C(F)(F)F)cc1)c1ncccc1C(F)(F)F)c1cccs1 [Example 138, (S)-N-((4-(trifluoromethyl)phenyl)(3-(trifluoromethyl)pyridin-2-yl)methyl)thiophene-2-carboxamide] | 46.4
O=C(NC(c1ccc(F)cc1)c1ccc(OC(F)(F)F)c(F)c1)c1ccc(=O)[nH]c1 (stereo not shown) [Example 411, N-((3-fluoro-4-(trifluoromethoxy)phenyl)(4-fluorophenyl)methyl)-6-oxo-1,6-dihydropyridine-3-carboxamide] | 140
Cc1cc([C@H](NC(=O)c2ccc(=O)[nH]c2)c2ncccc2F)ccc1F [Example 338, (S)-N-((4-fluoro-3-methylphenyl)(3-fluoropyridin-2-yl)methyl)-6-oxo-1,6-dihydropyridine-3-carboxamide] | 264
O=C(N[C@@H](c1ccc(OC(F)(F)F)cc1)c1ncccc1F)c1ccc2nnnn2c1 [Example 309, (S)-N-((3-fluoropyridin-2-yl)(4-(trifluoromethoxy)phenyl)methyl)tetrazolo[1,5-a]pyridine-6-carboxamide] | 30.8

Compounds with a lower IC50, results first:

IC50 [nM] | SMILES
25.9 | Cc1cccnc1[C@@H](NC(=O)c1ccc2[nH]c(=O)oc2c1)c1ccc(C(F)(F)F)cc1 [Example 313, (S)-N-((3-methylpyridin-2-yl)(4-(trifluoromethyl)phenyl)methyl)-2-oxo-2,3-dihydrobenzo[d]oxazole-6-carboxamide]
24.5 | O=C(N[C@@H](c1ccc(C(F)(F)F)cc1)c1ncccc1C(F)(F)F)c1c[nH]c2ncccc12 [Example 43, (S)-N-((4-(trifluoromethyl)phenyl)(3-(trifluoromethyl)pyridin-2-yl)methyl)-1H-pyrrolo[2,3-b]pyridine-3-carboxamide]
19.3 | Cn1cc(C(=O)N[C@@H](c2ccc(Cl)c(Cl)c2)c2ncccc2F)ccc1=O [Example 251, (S)-N-((3,4-dichlorophenyl)(3-fluoropyridin-2-yl)methyl)-1-methyl-6-oxo-1,6-dihydropyridine-3-carboxamide 2,2,2-trifluoroacetate]
19.1 | CN1C(=O)c2ccc(C(=O)N[C@@H](c3ccc(C(F)(F)F)cc3)c3ncccc3C(F)(F)F)cc2C1=O [Example 270, (S)-2-Methyl-1,3-dioxo-N-((4-(trifluoromethyl)phenyl)(3-(trifluoromethyl)pyridin-2-yl)methyl)isoindoline-5-carboxamide]
14.4 | O=C(N[C@@H](c1ccc(OC(F)(F)F)c(F)c1)c1ncccc1F)c1ccc(=O)n(C2COC2)c1 [Example 304, (S)-N-((3-fluoro-4-(trifluoromethoxy)phenyl)(3-fluoropyridin-2-yl)methyl)-1-(oxetan-3-yl)-6-oxo-1,6-dihydropyridine-3-carboxamide]
10.3 | O=C(N[C@@H](c1ccc(OC(F)(F)F)cc1)c1ncccc1F)c1ccc2nccn2c1 [Example 89]
9.7 | CCn1cc(C(=O)N[C@@H](c2ccc(OC(F)(F)F)c(F)c2)c2ncccc2F)ccc1=O [Example 366, (S)-1-ethyl-N-((3-fluoro-4-(trifluoromethoxy)phenyl)(3-fluoropyridin-2-yl)methyl)-6-oxo-1,6-dihydropyridine-3-carboxamide]
6.7 | O=C(N[C@@H](c1ccc(OC(F)(F)F)c(F)c1)c1ncccc1C(F)(F)F)c1ccc2oc(=O)[nH]c2c1 [Example 385, (S)-N-((3-fluoro-4-(trifluoromethoxy)phenyl)(3-(trifluoromethyl)pyridin-2-yl)methyl)-2-oxo-2,3-dihydrobenzo[d]oxazole-5-carboxamide]
